From a melting point compilation (Tetko et al.; mined from patent text by program, amines drawn as free bases though some values may be those of a salt)

Row | SMILES | melting point [°C]
1 | CS(=O)(=O)c1ccc(-n2nc(C(F)(F)F)cc2-c2ccc(-n3ccnc3)cc2)cc1 | 183 to 184
2 | CCC(C)(C)c1cc(C(C)(C)CC)c2c(c1)C1(O)C(=O)c3ccccc3C1(O)O2 (configuration not stated) | 195 to 222
3 | O=c1c2c([nH]c3cn[nH]c13)CCCC2 | > 325
4 | Cc1cc(Cl)ccc1N=CN(C)SN(C)c1ccccc1 | 65 to 67
5 | C/C(=C\c1ccc(C(=O)O)cc1)c1ccc2c(c1)C(C)(C)C(O)CC2(C)C (configuration not stated) | 250 to 252
6 | N#CCCCc1ccccc1CC1C(=O)CCCC1=O | 143
7 | COc1cc(COc2nn(-c3ccccc3)cc2C=O)ccc1OCc1nc(-c2ccccc2)oc1C | 142 to 143
8 | CC(C)NC(=O)c1ccc(N2CCC(N3C(=O)OCc4ccccc43)CC2)nc1 | > 230
9 | Cc1ccc(CN[C@H](CO)Cc2ccccc2)cc1 | 125 to 127
10 | CCc1cnc(N2CCC(c3ccc(COc4ccc(C#N)c(F)c4)nc3)CC2)nc1 | 129 to 131
11 | Cn1c(-c2ccccc2)c2c(c(C#N)c1=O)-c1ccccc1C2=O | 255 to 256
12 | COc1cc(COCCc2cccc(NS(=O)(=O)C(F)(F)F)c2)ccc1-c1ccc(Cl)cc1 | 88 to 90
13 | CN(C)Cc1ccc(Cc2cnc(N[N+](=O)[O-])[nH]c2=O)cn1 | 234 to 238
14 | CCO[C@H]1C(C(=O)NCc2ccc(Cl)cc2)=C(C)OC(OCC)(OCC)[C@H]1C (relative stereo) | 97 to 100
15 | Cn1c(=O)cc(CCc2cccc(Cl)c2)c2cc(C(N)(c3ccc(Cl)cc3)c3cccnc3)ccc21 (configuration not stated) | 90
16 | CC(=O)OC1CCC2C3CCC4CC(O[Si](C)(C)C(C)(C)C)CCC4C3CCC12C (configuration not stated) | 89 to 90
17 | COc1cc(N)c(Cl)cc1C(=O)NCCN1CCC2(CC1)C(=O)NCN2c1ccccc1 | 247
18 | CC(=O)Nc1ccc(O)c(CN2CCC(NC(=O)c3ccccc3)CC2)c1 | 242
19 | CCCCCCCCSc1ccc(CC(NC(C)=O)(C(=O)OCC)C(=O)OCC)cc1 | 82 to 84
20 | Cc1cccc(-c2[nH]c(C3CC3)nc2-c2cccc(-c3ccc(C(=O)NC4CCOCC4)cc3)c2)n1 | 127 to 128
21 | COCCNC(=O)c1cccc(-c2ccc(F)c3cc(Cc4cccc(S(C)(=O)=O)c4)sc23)c1 | 158 to 159
22 | COC(=O)c1cccc(OCCCNC(=O)C[C@H]2O[C@H](c3cccc(OC)c3OC)c3cc(Cl)ccc3N(CC(C)(C)CO)C2=O)c1 | 99 to 100
23 | Cc1sc(S(N)(=O)=S)cc1C(C)O (configuration not stated) | 100 to 102
24 | CCCCc1ncc(/C=C(\Cc2cccs2)C(=O)O)n1Cc1ccc(O)c(C)c1 | 150 to 152
25 | CC1(C)NC(=O)N(CC(CSc2ccc(-c3ccc(C(F)(F)F)cc3)cc2)N(O)C=O)C1=O (configuration not stated) | 172 to 174

Row | SMILES | melting point [°C]
26 | Cc1noc(NS(=O)(=O)c2sc3ccc(Cl)cc3c2C)c1Br | 153 to 155
27 | Nc1cccc2nc3c(nc12)N1CCCCC1CO3 (configuration not stated) | 207 to 209
28 | CCCCOc1c(CNC(=O)OC(C)(C)C)n(CC(C)C)c(=O)c2ccc(C(C)=O)cc12 | 161 to 162
29 | O=S(=O)(c1ccccc1)n1c(Sc2cc(Cl)cc(Cl)c2)cc2cc(Cl)ccc21 | 121 to 122
30 | Cc1ccc(C(=O)Nc2ccc(N3CCCCC3)c(C(F)(F)F)c2)cc1Nc1nccc(-c2cccnc2)n1 | 201 to 202
31 | CN(c1ccc2ccccc2c1)c1nc(=O)c2cccnc2s1 | 230 to 232
32 | COc1cc(C=Cc2ccccc2)ccc1OCC(O)CCCc1cccnc1 (configuration not stated) | 110 to 111
33 | Cc1ccc2c(c1)[C@H](Nc1nc(N)nc(C(F)F)n1)[C@@H](C)C2 | 132 to 134
34 | COc1cc(OC)c(F)c(N2Cc3cnc(S(C)=O)nc3N(C3CC3)C2=O)c1F (configuration not stated) | 198 to 200
35 | Nc1ccccc1N(C=O)CCCCO | 77 to 79
36 | O=[N+]([O-])c1nc(CC(O)C2CO2)c[nH]1 (configuration not stated) | 90 to 92
37 | C#CCOc1cc(F)ccc1[N+](=O)[O-] | 38 to 39
38 | CCCC(=O)N1CCc2nnc(NN=C(C)C)cc2C1 | 152 to 154
39 | COc1nc(NCCCN2CCOCC2)nc(OC)c1NC(=O)c1ccc(Oc2cncc([Si](C)(C)C)c2)o1 | 80 to 82
40 | COc1cccc(OC)c1C(=O)C=Cc1c(Cl)cccc1Cl | 127 to 128
41 | COC(=O)c1ccc2c(c1)NC(=O)c1cccnc1N2 | 344 to 349
42 | COc1ccc2c(n1)C1(CO2)C(=O)N(Cc2ncccc2C(F)(F)F)c2ccccc21 (configuration not stated) | 195 to 198
43 | CC(C)(C)c1ccc(C(CO)NC(=O)c2c(F)c(F)cc(F)c2F)cc1 (configuration not stated) | 158 to 160
44 | COc1c(N2CCC(N)C(C)C2)c(F)c(N)c2c(=O)c(C(=O)O)cn(C3CC3)c12 (configuration not stated) | 260 to 262
45 | N#CC=CNCC(=O)c1cccc(Cl)c1Cl | 125 to 127
46 | O=C(O)c1ccc(F)c(F)c1Cl | 167 to 168
47 | O=C(O)CCCNC(=O)c1cc(Br)no1 | 140 to 141
48 | COC(=O)NNC(=O)Cl | 55 to 58
49 | CN(C#N)C(=O)CCCC(=O)N(C)C#N | 51.4 to 52.8
50 | CCCC1(O)CCN(C)C(Cc2ccc(OC)cc2)C1(C)C (configuration not stated) | 85 to 102

Row | SMILES | melting point [°C]
51 | CC1(C)CCn2c(nc(-c3ccncc3)cc2=O)N1 | 345 to 347
52 | CC(=O)OC1CSC(Oc2ccc(-c3ccc(F)nc3)nc2)C(OC(C)=O)C1OC(C)=O (configuration not stated) | 185
53 | COc1nc(Cc2ccccc2NS(=O)(=O)C(F)(F)F)nc(OC)n1 | 101 to 108
54 | Cc1ccccc1C(=O)CN1C(=O)C(NC(=O)Nc2cccc(C(=O)NS(C)(=O)=O)c2)CN(c2ccccc2)c2ccccc21 (configuration not stated) | 210 to 220
55 | COC(=O)CCc1ccc(-n2ncn(-c3ccc(C#N)cc3)c2=O)cc1 | 213 to 215
56 | COc1ccc(C(=O)OC2C=C(C)C(=O)CC(C)(C)C2O)cc1OC (configuration not stated) | 161 to 164
57 | CCCOc1ccccc1-c1nc(O)cc(CC)n1 | 97 to 98.5
58 | Cc1cc(C(=O)c2ccccc2)ccc1NC(=O)C(C)(O)C(F)(F)F (configuration not stated) | 123 to 124
59 | COc1ccc(-c2ccc(Cl)cc2)c(COc2ccc(-c3nc4cc(C(=O)O)ccc4n3C3CCCCC3)cc2)c1 | 248 to 249
60 | CCCCCCC(C)(C)c1ccc(C2=CCCC3(C2)OCCO3)c(O)c1 | 97 to 98
61 | FC(F)(F)c1cccc(C2=NN3CCN=C3C=C2)c1 | 137 to 139
62 | Cn1cnc(S(=O)(=O)Nc2cccc(C=C3c4ccccc4CCc4ccccc43)c2)c1 | 257
63 | Cc1ccccc1-c1nc(-c2ccccc2Cl)n[nH]1 | 109 to 111
64 | Cn1nc(-c2c(Cl)cncc2Cl)nc1Cc1ccc(Cl)cc1Cl | 79 to 81
65 | COc1ccc2c(c1)C=C(C(=O)O)CCO2 | 176 to 177
66 | CCc1cc(O)cc2cc(-c3ccc(O)cc3)oc12 | 218 to 220
67 | NCCSc1ccc(CCC(=O)O)cc1 | 90 to 110
68 | O=C(OCCN1CCNC1=Nc1ccccc1N1CCOCC1)c1ccccc1 | 92 to 94
69 | O=C(C=Cc1cccnc1)NCCCCN1CCCN(C(c2ccccc2)c2ccccc2)CC1 | 149 to 151
70 | C=CCCCCCCCCC(=O)N1CCN(c2cc(N3CCCC3)nc(N3CCCC3)n2)CC1 | 93 to 96
71 | NNc1nc2ccc(OC(F)(F)F)cc2s1 | 208
72 | N=c1n(CCO)c2ccccc2n1-c1ccccc1 | 210 to 212
73 | Nc1ccc2c(c1)c(CC(=O)O)cc(=O)n2Cc1ccc(Cl)cc1 | 196 to 199
74 | Cc1ccc(-c2nnc(-c3ccco3)s2)cc1 | 111 to 113
75 | Cc1ccc(C(=O)Nc2cccc(C(F)(F)F)c2)cc1Br | 157 to 158

Row | SMILES | melting point [°C]
76 | O=C(c1ccccc1)c1cc([N+](=O)[O-])ccc1-n1nc(CO)cc1CO | 145 to 147
77 | CC(C)(Br)c1ccc2occ(C#N)c(=O)c2c1 | 115 to 117
78 | Nc1cc(-c2ccncc2)cc2nc(-c3ccco3)nn12 | 294 to 296
79 | Clc1ccc(-c2cc(Cl)c3ccccc3n2)cc1 | 119 to 122
80 | CCOC(=O)c1ncn2c1[C@@H]1CCN1C(=O)c1cc(F)ccc1-2 | 226 to 227
81 | Cc1nc(-c2cnc3[nH]cc(C(=O)N[C@@H](C(=O)N4CC(C#N)C4)C(C)(C)C)c3n2)cn1-c1cc(F)cc(F)c1 | 187 to 190
82 | C[Si](C)(c1ccc(N(c2ccccc2)c2ccccc2)cc1)c1ccc(N(c2ccccc2)c2ccccc2)cc1 | 170 to 172
83 | FC(F)(F)COc1nc(NCc2ccc(C(F)(F)F)cc2)nc(Nc2ccc3cc[nH]c3c2)n1 | 119 to 121
84 | CCn1c(=O)c2c(nc(/C=C/c3cc(OC)ccc3OC(=O)c3ccccc3)n2C)n(CC)c1=O | 254 to 255
85 | CCOC(=O)c1cccc(OP(=O)(CCN2CCCNc3c2c(=O)c3=O)Oc2cccc(C(=O)OCC)c2)c1 | 116 to 117
86 | Cc1ccc(-c2c(Cl)ncnc2NS(=O)(=O)c2ccc(C(C)(C)COC3CCCCO3)cc2)cc1 (configuration not stated) | 141 to 144
87 | CCCCc1c(C(=O)c2ccc(OC)cc2)c2cc([N+](=O)[O-])ccc2n1C | 168
88 | OC1CSC(Oc2cncc(-c3cc4ccccc4o3)c2)C(O)C1O (configuration not stated) | 210
89 | CN(C)C=Nc1ncc(C#Cc2ccc(Cl)cc2)c(Cl)n1 | 195 to 197
90 | Cc1csc2c1CCN(C)CC2c1ccccc1 (configuration not stated) | 40
91 | N[C@@H](Cc1cccc(OC(F)(F)C(F)F)c1)[C@H](O)c1ccc(Oc2ccccc2)cc1 (racemic) | 85 to 86
92 | Cc1cc(C)cc(NC(=O)Cc2ccc(OC(C)C(=O)O)cc2)c1 (configuration not stated) | 183 to 187
93 | CC1(C)CCC(C)(C)c2cc(-c3cc(-c4ccc(C(=O)O)cc4)ccc3OCCCCCCCCO)ccc21 | 155 to 160
94 | CN(c1ccc(Cl)cc1)S(=O)(=O)c1cn(S(=O)(=O)N(C)C)cn1 | 132
95 | FC(F)(F)Oc1ccc2nc(Cl)sc2c1 | < 50
96 | CCOCc1nc2c(N)nc3ccccc3c2n1CCCCS(=O)(=O)N(C)C | 173 to 174
97 | Cn1c([N+](=O)[O-])cnc1COc1ccc([N+](=O)[O-])cc1Cl | 138
